Consider 28 compounds from patent publication US11053213B2, “Pharmaceutical compounds” (ALMAC DISCOVERY LIMITED, priority 2016, dated 2021).

Bounds are passed on as bounds.

As a reminder, the IC50 is the point on the concentration scale where inhibition reaches its midpoint.

Chain of USP19 (O94966 whole entry): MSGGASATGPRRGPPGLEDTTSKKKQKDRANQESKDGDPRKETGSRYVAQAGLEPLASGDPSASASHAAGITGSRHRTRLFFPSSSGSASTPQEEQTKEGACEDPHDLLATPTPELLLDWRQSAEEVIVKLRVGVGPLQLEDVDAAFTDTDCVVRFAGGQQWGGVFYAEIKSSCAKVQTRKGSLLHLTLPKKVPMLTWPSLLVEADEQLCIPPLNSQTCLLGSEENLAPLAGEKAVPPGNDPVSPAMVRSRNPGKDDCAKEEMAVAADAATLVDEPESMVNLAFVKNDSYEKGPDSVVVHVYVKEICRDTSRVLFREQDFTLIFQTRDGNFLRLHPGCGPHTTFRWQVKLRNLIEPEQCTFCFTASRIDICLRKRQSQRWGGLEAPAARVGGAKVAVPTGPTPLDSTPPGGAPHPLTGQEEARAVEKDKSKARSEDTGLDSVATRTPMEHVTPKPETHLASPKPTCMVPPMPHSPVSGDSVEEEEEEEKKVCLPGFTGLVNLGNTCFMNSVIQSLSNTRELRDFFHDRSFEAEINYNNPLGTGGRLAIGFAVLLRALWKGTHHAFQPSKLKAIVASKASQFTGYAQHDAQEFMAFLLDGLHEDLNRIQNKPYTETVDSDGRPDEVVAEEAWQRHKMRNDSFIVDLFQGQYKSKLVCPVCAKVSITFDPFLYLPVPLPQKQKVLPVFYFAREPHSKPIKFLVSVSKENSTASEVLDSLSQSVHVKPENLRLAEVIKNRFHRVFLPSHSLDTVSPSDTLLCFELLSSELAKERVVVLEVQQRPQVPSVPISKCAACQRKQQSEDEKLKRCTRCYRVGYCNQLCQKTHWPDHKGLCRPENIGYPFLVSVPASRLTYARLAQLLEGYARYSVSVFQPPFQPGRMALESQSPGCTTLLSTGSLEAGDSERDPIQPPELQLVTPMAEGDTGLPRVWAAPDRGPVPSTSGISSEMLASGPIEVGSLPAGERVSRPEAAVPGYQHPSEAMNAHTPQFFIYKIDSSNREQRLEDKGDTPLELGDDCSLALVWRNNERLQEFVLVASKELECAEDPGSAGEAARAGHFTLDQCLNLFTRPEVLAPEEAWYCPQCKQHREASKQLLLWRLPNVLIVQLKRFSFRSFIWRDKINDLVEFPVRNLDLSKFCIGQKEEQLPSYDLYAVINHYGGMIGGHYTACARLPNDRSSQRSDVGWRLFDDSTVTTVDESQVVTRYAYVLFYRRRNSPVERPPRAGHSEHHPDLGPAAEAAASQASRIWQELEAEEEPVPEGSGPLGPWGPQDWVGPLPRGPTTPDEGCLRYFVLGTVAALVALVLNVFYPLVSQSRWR

This experiment addresses USP19 (Homo sapiens (Human), UniProt O94966). As to the kind of experiment: USP19 activity assay (fluorescence polarisation, Ubiquitin-Lys-TAMRA substrate). The class given is biochemical. As to conditions: full-length USP19 2.5 nM, 30 min pre-incubation, Ub substrate 500 nM; average of at least two duplicate experiments. For orientation: Fluorescence polarisation rises when a labelled molecule tumbles more slowly, as on binding a larger partner.
Turning to `C[C@H](CC(=O)N1CCC(O)(Cn2cc(C(=O)N3CCC[C@@H]3C)c(-c3ccccc3)cc2=O)CC1)c1ccccc1` [Example 116, 1-((4-Hydroxy-1-((R)-3-phenylbutanoyl)piperidin-4-yl)methyl)-5-((S)-2-methylpyrrolidine-1-carbonyl)-4-phenylpyridin-2(1H)-one], the IC50 was in the range of 0.5 to 5 µM.

With `C[C@H](CC(=O)N1CCC(O)(Cn2cc(C(=O)N3CCC(CO)CC3)c(-c3ccccc3)cc2=O)CC1)c1ccccc1` [Example 117, (R)-1-((4-Hydroxy-1-(3-phenylbutanoyl)piperidin-4-yl)methyl)-5-(4-(hydroxymethyl)piperidine-1-carbonyl)-4-phenylpyridin-2(1H)-one], the IC50 lay within 0.5 to 5 µM.

As for `CCC(CC1CCCCC1)C(=O)N1CCC(O)(Cn2cnc(-c3ccccc3F)cc2=O)C(C)(C)C1` (stereo not shown) [Example 118, 3-((1-(2-(Cyclohexylmethyl)butanoyl)-4-hydroxy-3,3-dimethylpiperidin-4-yl)methyl)-6-(2-fluorophenyl)pyrimidin-4(3H)-one], the IC50 is 0.5 to 5 µM.

As for `C[C@H](CC1CCCCC1)C(=O)N1CCC(O)(Cn2cnc(-c3ccccc3F)cc2=O)C2(CCCC2)C1` (stereo partly drawn) [Example 119, 3-((7-((R)-3-Cyclohexyl-2-methylpropanoyl)-10-hydroxy-7-azaspiro[4.5]decan-10-yl)methyl)-6-(2-fluorophenyl)pyrimidin-4(3H)-one], the IC50 is below 0.5 µM.

`CC(C)N(C)C(=O)c1cn(C[C@]2(O)CCN(C(=O)[C@H](C)CC3CCCCC3)CC2(C)C)c(=O)cc1-c1ccccc1` [Example 120, 1-(((S)-1-((R)-3-Cyclohexyl-2-methylpropanoyl)-4-hydroxy-3,3-dimethylpiperidin-4-yl)methyl)-N-isopropyl-N-methyl-6-oxo-4-phenyl-1,6-dihydropyridine-3-carboxamide]: the IC50 was below 0.5 µM.

Take `C[C@H](CC1CCCCC1)C(=O)N1CC[C@@](O)(Cn2cc(C(=O)N(C)C)c(-c3ccccc3)cc2=O)C(C)(C)C1` [Example 121, 1-(((S)-1-((R)-3-Cyclohexyl-2-methylpropanoyl)-4-hydroxy-3,3-dimethylpiperidin-4-yl)methyl)-N,N-dimethyl-6-oxo-4-phenyl-1,6-dihydropyridine-3-carboxamide]: the half-inhibitory concentration (IC50) is below 0.5 µM.

For the compound `C[C@H](CC1CCCCC1)C(=O)N1CC[C@](O)(Cn2cc(C(=O)N(C)C)c(-c3ccccc3)cc2=O)C(C)(C)C1` [Example 122, 1-(((R)-1-((R)-3-Cyclohexyl-2-methylpropanoyl)-4-hydroxy-3,3-dimethylpiperidin-4-yl)methyl)-N,N-dimethyl-6-oxo-4-phenyl-1,6-dihydropyridine-3-carboxamide], the half-inhibitory concentration (IC50) lay within 50 to 250 µM.

On to `C[C@H](CC1CCCCC1)C(=O)N1CC[C@@](O)(Cn2cc(C(=O)N3CCCC3)c(-c3ccccc3)cc2=O)C(C)(C)C1` [Example 123, 1-(((S)-1-((R)-3-Cyclohexyl-2-methylpropanoyl)-4-hydroxy-3,3-dimethylpiperidin-4-yl)methyl)-4-phenyl-5-(pyrrolidine-1-carbonyl)pyridin-2(1H)-one], for which the half-maximal inhibitory concentration (IC50) is below 0.5 µM.

In the case of `C[C@H](CC1CCCCC1)C(=O)N1CC[C@](O)(Cn2cc(C(=O)N3CCNCC3)c(-c3ccccc3)cc2=O)C(C)(C)C1` [Example 125, 1-(((R)-1-((R)-3-Cyclohexyl-2-methylpropanoyl)-4-hydroxy-3,3-dimethylpiperidin-4-yl)methyl)-4-phenyl-5-(piperazine-1-carbonyl)pyridin-2(1H)-one], the half-maximal inhibitory concentration (IC50) is 5 to 50 µM.

As to `CC(OC1CCCCC1)C(=O)N1CCC(O)(Cn2cnc(-c3ccccc3F)cc2=O)C(C)(C)C1` (stereo not shown) [Example 126, 3-((1-(2-(Cyclohexyloxy)propanoyl)-4-hydroxy-3,3-dimethylpiperidin-4-yl)methyl)-6-(2-fluorophenyl)pyrimidin-4(3H)-one], the IC50 lay in the range of 50 to 250 µM.

For `C[C@H](CC1CCCCC1)C(=O)N1CCC(O)(Cn2cc(C(=O)N(C)C)ccc2=O)C2(CCCC2)C1` (stereo partly drawn) [Example 127, 1-((7-((R)-3-Cyclohexyl-2-methylpropanoyl)-10-hydroxy-7-azaspiro[4.5]decan-10-yl)methyl)-N,N-dimethyl-6-oxo-1,6-dihydropyridine-3-carboxamide], the IC50 lay within 0.5 to 5 µM.

With `C[C@H](CC1CCC1)C(=O)N1CCC(O)(Cn2cc(C(=O)N(C)C)c(-c3ccccc3)cc2=O)C(C)(C)C1` (stereo partly drawn) [Example 128, 1-((1-((R)-3-Cyclobutyl-2-methylpropanoyl)-4-hydroxy-3,3-dimethylpiperidin-4-yl)methyl)-N,N-dimethyl-6-oxo-4-phenyl-1,6-dihydropyridine-3-carboxamide], the IC50 was in the range of 0.5 to 5 µM.

For the compound `C[C@H](CC1CC1)C(=O)N1CCC(O)(Cn2cc(C(=O)N(C)C)c(-c3ccccc3)cc2=O)C(C)(C)C1` (stereo partly drawn) [Example 129, 1-((1-((R)-3-Cyclopropyl-2-methylpropanoyl)-4-hydroxy-3,3-dimethylpiperidin-4-yl)methyl)-N,N-dimethyl-6-oxo-4-phenyl-1,6-dihydropyridine-3-carboxamide], the IC50 was in the range of 5 to 50 µM.

Take `C[C@H](CC1CCCCC1)C(=O)N1CCC(O)(Cn2cnc(-c3cncnc3)cc2=O)C(C)(C)C1` (stereo partly drawn) [Example 130, 1-((1-((R)-3-Cyclohexyl-2-methylpropanoyl)-4-hydroxy-3,3-dimethylpiperidin-4-yl)methyl)-[4,5′-bipyrimidin]-6(1H)-one]: the 50% inhibitory concentration (IC50) fell in the range of 0.5 to 5 µM.

`C[C@H](CC1CCCCC1)C(=O)N1CCC(O)(Cn2cnc(-c3ccnn3C)cc2=O)C(C)(C)C1` (stereo partly drawn) [Example 131, 3-((1-((R)-3-Cyclohexyl-2-methylpropanoyl)-4-hydroxy-3,3-dimethylpiperidin-4-yl)methyl)-6-(1-methyl-1H-pyrazol-5-yl)pyrimidin-4(3H)-one]: the IC50 was 0.5 to 5 µM.

Turning to `C[C@H](CC1CCCCC1)C(=O)N1CCC(O)(Cn2cnc(-c3cn[nH]c3)cc2=O)C(C)(C)C1` (stereo partly drawn) [Example 132, 3-((1-((R)-3-Cyclohexyl-2-methylpropanoyl)-4-hydroxy-3,3-dimethylpiperidin-4-yl)methyl)-6-(1H-pyrazol-4-yl)pyrimidin-4(3H)-one], the IC50 fell in the range of 5 to 50 µM.

As to `C[C@H](CC1CCCCC1)C(=O)N1CCC(O)(Cn2cnc(-c3ccn[nH]3)cc2=O)C(C)(C)C1` (stereo partly drawn) [Example 133, 3-((1-((R)-3-Cyclohexyl-2-methylpropanoyl)-4-hydroxy-3,3-dimethylpiperidin-4-yl)methyl)-6-(1H-pyrazol-5-yl)pyrimidin-4(3H)-one], the 50% inhibitory concentration (IC50) was in the range of 0.5 to 5 µM.

`C[C@H](CC1CCCCC1)C(=O)N1CCC(O)(Cn2cnccc2=O)C2(CCCC2)C1` (stereo partly drawn) [Example 134, 3-((7-((R)-3-Cyclohexyl-2-methylpropanoyl)-10-hydroxy-7-azaspiro[4.5]decan-10-yl)methyl)pyrimidin-4(3H)-one]: the IC50 lay in the range of 5 to 50 µM.

For `C[C@H](CC1CCCCC1)C(=O)N1CCC(O)(Cn2cnc(-c3ccsc3)cc2=O)C(C)(C)C1` (stereo partly drawn) [Example 135, 3-((1-((R)-3-Cyclohexyl-2-methylpropanoyl)-4-hydroxy-3,3-dimethylpiperidin-4-yl)methyl)-6-(thiophen-3-yl)pyrimidin-4(3H)-one], the IC50 was below 0.5 µM.

As to `C[C@H](CC1CCCCC1)C(=O)N1CCC(O)(Cn2cc(-c3ncco3)c(-c3ccccc3)cc2=O)C(C)(C)C1` (stereo partly drawn) [Example 136, 1-((1-((R)-3-Cyclohexyl-2-methylpropanoyl)-4-hydroxy-3,3-dimethylpiperidin-4-yl)methyl)-5-(oxazol-2-yl)-4-phenylpyridin-2(1H)-one], the half-inhibitory concentration (IC50) fell in the range of 0.5 to 5 µM.

With `C[C@H](CC1CCCCC1)C(=O)N1CCC(O)(Cn2cnc(-c3ccccc3CO)cc2=O)C(C)(C)C1` (stereo partly drawn) [Example 137, 3-((1-((R)-3-Cyclohexyl-2-methylpropanoyl)-4-hydroxy-3,3-dimethylpiperidin-4-yl)methyl)-6-(2-(hydroxymethyl)phenyl)pyrimidin-4(3H)-one], the half-maximal inhibitory concentration (IC50) was 0.5 to 5 µM.

Regarding `C[C@H](CC1CCCCC1)C(=O)N1CCC(O)(Cn2cnc(-c3cccc(CO)c3)cc2=O)C(C)(C)C1` (stereo partly drawn) [Example 138, 3-((1-((R)-3-Cyclohexyl-2-methylpropanoyl)-4-hydroxy-3,3-dimethylpiperidin-4-yl)methyl)-6-(3-(hydroxymethyl)phenyl)pyrimidin-4(3H)-one], the IC50 was below 0.5 µM.

For the compound `C[C@H](CC1CCCCC1)C(=O)N1CCC(O)(Cn2cnc(-c3ccc(CO)cc3)cc2=O)C(C)(C)C1` (stereo partly drawn) [Example 139, 3-((1-((R)-3-Cyclohexyl-2-methylpropanoyl)-4-hydroxy-3,3-dimethylpiperidin-4-yl)methyl)-6-(4-(hydroxymethyl)phenyl)pyrimidin-4(3H)-one], the 50% inhibitory concentration (IC50) was below 0.5 µM.

As for `C[C@H](CC1CCCCC1)C(=O)N1CCC(O)(Cn2cnc(-c3ccc(CN)cc3)cc2=O)C(C)(C)C1` (stereo partly drawn) [Example 140, 6-(4-(Aminomethyl)phenyl)-3-((1-((R)-3-cyclohexyl-2-methylpropanoyl)-4-hydroxy-3,3-dimethylpiperidin-4-yl)methyl)pyrimidin-4(3H)-one], the IC50 lay within 0.5 to 5 µM.

As to `C[C@H](CC1CCCCC1)C(=O)N1CCC(O)(Cn2cnc(-c3ccccc3CN)cc2=O)C(C)(C)C1` (stereo partly drawn) [Example 141, 6-(2-(Aminomethyl)phenyl)-3-((1-((R)-3-cyclohexyl-2-methylpropanoyl)-4-hydroxy-3,3-dimethylpiperidin-4-yl)methyl)pyrimidin-4(3H)-one], the IC50 was below 0.5 µM.

Regarding `CC(CC(C)(C)C)C(=O)N1CCC(O)(Cn2cnc(-c3ccccc3F)cc2=O)C(C)(C)C1` (stereo not shown) [Example 142, 6-(2-Fluorophenyl)-3-((4-hydroxy-3,3-dimethyl-1-(2,4,4-trimethylpentanoyl)piperidin-4-yl)methyl)pyrimidin-4(3H)-one], the 50% inhibitory concentration (IC50) was 50 to 250 µM.

Turning to `CC(CC(F)(F)F)C(=O)N1CCC(O)(Cn2cnc(-c3ccccc3F)cc2=O)C(C)(C)C1` (stereo not shown) [Example 143, 6-(2-Fluorophenyl)-3-((4-hydroxy-3,3-dimethyl-1-(4,4,4-trifluoro-2-methylbutanoyl)piperidin-4-yl)methyl)pyrimidin-4(3H)-one], the IC50 is 5 to 50 µM.

In the case of `C[C@H](CC1CCCCC1)C(=O)N1CCC(O)(Cn2cc(C(=O)N(C)C)c(Cl)cc2=O)C2(CCCC2)C1` (stereo partly drawn) [Example 144, 4-chloro-1-((7-((R)-3-cyclohexyl-2-methylpropanoyl)-10-hydroxy-7-azaspiro[4.5]decan-10-yl)methyl)-N,N-dimethyl-6-oxo-1,6-dihydropyridine-3-carboxamide], the IC50 is below 0.5 µM.
